The NIST ThermoML archive (doi:10.1021/je800110r)

Conditions: Liquid, Vibrating tube method

CCCCCCCCCC [decane]
Conditions	mass density [kg/m3]
323.14 K, 29147 kPa	730.4
323.14 K, 29286 kPa	730.6
323.14 K, 29368 kPa	730.6
323.14 K, 29415 kPa	730.5
323.14 K, 29637 kPa	730.8
323.14 K, 29675 kPa	730.8
323.14 K, 29724 kPa	730.9
323.14 K, 29765 kPa	730.8
323.14 K, 29800 kPa	730.9
323.14 K, 29840 kPa	731
323.14 K, 29872 kPa	731
323.14 K, 29908 kPa	730.9
323.14 K, 29935 kPa	731
323.14 K, 29962 kPa	730.9
323.14 K, 29999 kPa	731.1
323.14 K, 30026 kPa	731
323.14 K, 30054 kPa	731.1
323.14 K, 30082 kPa	731.1
323.14 K, 30114 kPa	731.1
323.14 K, 30147 kPa	731.1
323.14 K, 30180 kPa	731.2
323.14 K, 30217 kPa	731.1
323.14 K, 30240 kPa	731.2
323.14 K, 30273 kPa	731.2
323.14 K, 30306 kPa	731.2
323.14 K, 30353 kPa	731.3
323.14 K, 30381 kPa	731.3
323.14 K, 30409 kPa	731.3
323.14 K, 30447 kPa	731.3
323.14 K, 30475 kPa	731.3
323.14 K, 30513 kPa	731.3
323.14 K, 30547 kPa	731.4
323.14 K, 30586 kPa	731.4
323.14 K, 30624 kPa	731.4
323.14 K, 30652 kPa	731.6
323.14 K, 30686 kPa	731.6
323.14 K, 30720 kPa	731.5
323.14 K, 30753 kPa	731.7
323.14 K, 30787 kPa	731.5
323.14 K, 30816 kPa	731.5
323.14 K, 30851 kPa	731.7
323.14 K, 30890 kPa	731.5
323.14 K, 30919 kPa	731.6
323.14 K, 30964 kPa	731.6
323.14 K, 30993 kPa	731.6
323.14 K, 31028 kPa	731.6
323.14 K, 31068 kPa	731.8
323.14 K, 31097 kPa	731.8
323.14 K, 31257 kPa	731.9
323.14 K, 31307 kPa	732
323.14 K, 31343 kPa	731.9
323.14 K, 31374 kPa	732
323.14 K, 31421 kPa	732.1
323.14 K, 31463 kPa	732
323.14 K, 31495 kPa	732.1
323.14 K, 31537 kPa	732.1
323.14 K, 31569 kPa	732
323.14 K, 31606 kPa	732.1
323.14 K, 31636 kPa	732.2
323.14 K, 31661 kPa	732.2
323.14 K, 31690 kPa	732.1
323.14 K, 31715 kPa	732.2
323.14 K, 31736 kPa	732.2
323.14 K, 31774 kPa	732.2
323.14 K, 31812 kPa	732.3
323.14 K, 31838 kPa	732.2
323.14 K, 31872 kPa	732.3
323.14 K, 31911 kPa	732.5
323.14 K, 31949 kPa	732.3
323.14 K, 31979 kPa	732.3
323.14 K, 32017 kPa	732.4
323.14 K, 32056 kPa	732.4
323.14 K, 32082 kPa	732.5
323.14 K, 32116 kPa	732.5
323.14 K, 32143 kPa	732.5
323.14 K, 32175 kPa	732.5
323.14 K, 32205 kPa	732.5
323.14 K, 32236 kPa	732.4
323.14 K, 32266 kPa	732.6
323.14 K, 32305 kPa	732.5
323.14 K, 32332 kPa	732.6
323.14 K, 32363 kPa	732.6
323.14 K, 32403 kPa	732.7
323.14 K, 32438 kPa	732.7
323.14 K, 32465 kPa	732.8
323.14 K, 32522 kPa	732.8
323.14 K, 32717 kPa	732.9
323.14 K, 32817 kPa	733
323.14 K, 32841 kPa	733
323.14 K, 32902 kPa	733
323.14 K, 32934 kPa	733.1
323.14 K, 32966 kPa	732.9
323.14 K, 32994 kPa	733.1
323.14 K, 33023 kPa	733
323.14 K, 33048 kPa	733
323.14 K, 33069 kPa	733.1
323.14 K, 33090 kPa	733.2
323.14 K, 33114 kPa	733.2
323.14 K, 33147 kPa	733.2
323.14 K, 33173 kPa	733.2
323.14 K, 33193 kPa	733.3
323.14 K, 33219 kPa	733.3
323.14 K, 33249 kPa	733.2
323.14 K, 33274 kPa	733.3
323.14 K, 33300 kPa	733.3
323.14 K, 33334 kPa	733.3
323.14 K, 33356 kPa	733.2
323.14 K, 33387 kPa	733.4
323.14 K, 33504 kPa	733.4
323.14 K, 33553 kPa	733.5
323.14 K, 33615 kPa	733.5
323.14 K, 33644 kPa	733.5
323.14 K, 33671 kPa	733.6
323.14 K, 33690 kPa	733.5
323.14 K, 33720 kPa	733.5
323.14 K, 33749 kPa	733.6
323.14 K, 33775 kPa	733.6
323.14 K, 33801 kPa	733.6
323.14 K, 33824 kPa	733.6
323.14 K, 33858 kPa	733.7
323.14 K, 33895 kPa	733.7
323.14 K, 33921 kPa	733.8
323.14 K, 33948 kPa	733.7
323.14 K, 33971 kPa	733.8
323.14 K, 34266 kPa	733.9
323.14 K, 34292 kPa	734
323.14 K, 34329 kPa	733.9
323.14 K, 34363 kPa	733.9
323.15 K, 688 kPa	707.4
323.15 K, 762 kPa	707.5
323.15 K, 781 kPa	707.5
323.15 K, 802 kPa	707.6
323.15 K, 828 kPa	707.5
323.15 K, 851 kPa	707.6
323.15 K, 875 kPa	707.7
323.15 K, 894 kPa	707.6
323.15 K, 924 kPa	707.7
